Where a SMILES comes first, the peptide text is derived from it. [ ]: non-standard residue; d: D form. The star is where a group is joined. Sta = CC(C)C[C@H](N)[C@@H](O)CC(=O)O; Isovaleryl = CC(C)CC(=O)*; Isobutyryl = CC(C)C(=O)*
Molecular target: T1, Human renin (Homo sapiens, UniProt P00797)
T1 construct: Human plasma (lyophilized) was used as the source of human substrate and human renin; from tissue; host or cells: human plasma (lyophilized)
T1 sequence (P00797 67-406): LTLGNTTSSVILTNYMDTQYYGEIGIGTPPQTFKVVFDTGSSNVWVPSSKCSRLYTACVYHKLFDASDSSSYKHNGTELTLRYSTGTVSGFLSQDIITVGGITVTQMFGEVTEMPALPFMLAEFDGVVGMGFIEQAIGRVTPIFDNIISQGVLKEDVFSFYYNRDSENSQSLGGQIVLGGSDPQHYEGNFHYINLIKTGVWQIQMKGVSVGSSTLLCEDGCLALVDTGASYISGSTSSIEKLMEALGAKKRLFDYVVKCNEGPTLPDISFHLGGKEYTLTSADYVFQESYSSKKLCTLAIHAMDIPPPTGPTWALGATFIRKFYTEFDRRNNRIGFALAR
Assay: human renin assay, radioimmunoassay of angiotensin I in human plasma (Haber et al.)
Assay type: biochemical
Details: for IC50: lyophilized human plasma as source of human substrate and human renin, read-out: I50 (M) Human renin
Description: In order to illustrate the pig renin inhibition and human renin inhibition of the peptide inhibitor of Example 1, the peptide was evaluated in the pig renin inhibition assay described in Rich et al., J. Med. Chem. 23:27, 1980, and was further evaluated in the human renin assay based on the method of Haber et al., J. Clin. Endocrinol. 29:1349, 1969. The latter method employs a radioimmunoassay technique to measure the amount of angiotensin I product created by renin cleavage of its substrate. Human plasma (lyophilized) was used as the source of human substrate and human renin. I50 values were obtained by plotting data at several inhibitor concentrations.

Row | SMILES | IC50 [M] | inhibition at 1 µM (at 1.0 × 10^-6 M) [%]
1 | CC(C)C[C@H](NC(=O)[C@H](Cc1c[nH]cn1)NC(=O)[C@H](Cc1ccccc1)NC(=O)[C@@H]1CCCN1C(=O)[C@H](Cc1c[nH]cn1)NC(=O)C(C)C)[C@@H](O)CC(=O)N[C@H](C(=O)N[C@@H](Cc1c[nH]cn1)C(=O)NCC(N)=O)C(C)C [N-Isobutyryl-L-histidyl-L-prolyl-L-phenylalanyl-L-histidyl-(3S,4S)-statyl-L-valyl-L-histidyl-L-glycyl amide] (Isobutyryl-HPFH[Sta]VHG-NH2) | 7.3e-08 | –
2 | CC[C@H](C)[C@H](NC(=O)C[C@H](O)[C@H](CC(C)C)NC(=O)[C@H](Cc1c[nH]cn1)NC(=O)[C@H](Cc1ccccc1)NC(=O)[C@@H]1CCCN1C(=O)[C@H](Cc1c[nH]cn1)NC(=O)CC(C)C)C(=O)N[C@@H](Cc1c[nH]cn1)C(N)=O [iso-Valeryl-His-Pro-Phe-His-Sta-Ile-His-NH2] (Isovaleryl-HPFH[Sta]IH-NH2) | 7.3e-09 | –
3 | CC(C)CC(=O)N[C@H](C(=O)N[C@H](C(=O)N[C@@H](CC(C)C)[C@@H](O)CC(=O)N[C@@H](C)C(=O)N[C@@H](CC(C)C)[C@@H](O)CC(=O)O)C(C)C)C(C)C [Pepstatin, iso-valeryl-Val--Val--Sta--Ala--Sta, reference compound] (Isovaleryl-VV[Sta]A[Sta]-OH) | – | 20
